The text below walks through data of patent US9815791B2, “Alkylpyrazolyl guanidine F1F0-ATPase inhibitors and therapeutic uses thereof” (Lycera Corporation, priority 2013, dated 2017).

Molecules are shown by their SMILES.

The first data set concerns Ramos cells. The experiment in a line: Cytotoxicity in Ramos cells. Type of data set: cell-based. As to conditions: Homo sapiens, read-out: Ramos Cell EC50. As to the method: Exemplary compounds described in above Examples were tested for activity against F1F0-ATPase by measuring the ability of the compounds to inhibit ATP synthesis. In addition, the compounds were assessed for cytotoxicity in Ramos cells. Inhibition of F1F0-ATPase activity in synthesizing ATP and cytotoxicity in Ramos cells were measured according to the procedures described in K. M. Johnson et al. Chemistry & Biology 2005, 12, 485-496.
One may read the EC50 as the concentration that produces a half-maximal response. In the case of `Cc1c(NC(=NC(=O)c2ccc(Cl)cc2)Nc2cccc(Cl)c2)n[nH]c1C(F)(F)F` [Compound A-38], the EC50 is under 10 µM.

`Cc1c(NC(=NC(=O)c2ccc(Cl)cc2Cl)Nc2ccc(Cl)cc2Cl)n[nH]c1C(F)(F)F` [Compound A-32]: the EC50 was under 10 µM.

In the case of `CCn1nc(C(F)(F)F)c(C)c1N/C(=N\C(=O)c1cccc(Cl)c1)Nc1cc(F)cc(Cl)c1` [Compound A-17], the EC50 is under 10 µM. In the case of `Cc1ccc(NC(=NC(=O)c2cccc(Cl)c2)Nc2n[nH]c(C(F)(F)F)c2C)c(Cl)c1` [Compound A-35], the EC50 was under 10 µM. On the same count and under the same terms, in the case of `Cc1c(NC(=NC(=O)c2ccc(Cl)cc2Cl)Nc2cccc(Cl)c2)n[nH]c1C(F)(F)F` [Compound A-9] it was under 10 µM.

As for `Cc1c(C(F)(F)F)n[nH]c1NC(=NC(=O)c1ccc(Cl)cc1Cl)Nc1cc(F)cc(Cl)c1` [Compound A-11], the EC50 is under 10 µM. The same measure, in the same setting: as for `CCn1nc(C(F)(F)F)c(C)c1N/C(=N\C(=O)c1ccc(F)c(F)c1)Nc1cccc(C(F)(F)F)c1` [Compound A-21], the figure is under 10 µM; as for `CCn1nc(C(F)(F)F)c(C)c1N/C(=N\C(=O)c1ccc(Cl)cc1)Nc1cc(F)cc(Cl)c1` [Compound A-24], under 10 µM; as for `Cc1c(N/C(=N\C(=O)c2cccc(Cl)c2)Nc2cc(F)cc(Cl)c2)n[nH]c1C(F)(F)F` [Compound A-1], under 10 µM. For the compound `Cc1c(NC(=NC(=O)c2ccc(Cl)c(F)c2)Nc2cc(F)cc(Cl)c2)n[nH]c1C(F)(F)F` [Compound A-39], the EC50 was under 10 µM. Same read-out and setting: in the case of `CCn1nc(C(F)(F)F)c(C)c1N/C(=N\C(=O)c1ccc(Cl)cc1)Nc1cccc(Cl)c1` [Compound A-26] it was under 10 µM; in that of `CCn1nc(C(F)(F)F)c(C)c1N/C(=N\C(=O)c1cccc(Cl)c1)Nc1cccc(C(F)(F)F)c1` [Compound A-18], under 10 µM; in that of `CCn1nc(C(F)(F)F)c(C)c1N/C(=N\C(=O)c1ccc(Cl)cc1Cl)Nc1cccc(Cl)c1` [Compound A-23], under 10 µM. With `CCn1nc(C(F)(F)F)c(C)c1N/C(=N\C(=O)c1ccc(OC)cc1)Nc1cc(F)cc(Cl)c1` [Compound A-14], the EC50 is under 10 µM. Turning to `CCn1nc(C(F)(F)F)c(C)c1N/C(=N\C(=O)c1ccc(F)c(F)c1)Nc1cccc(Cl)c1` [Compound A-22], the EC50 is under 10 µM. Still for that read-out and setting: as for `Cc1ccc(N/C(=N/C(=O)c2ccc(F)c(F)c2)Nc2[nH]nc(C(F)(F)F)c2C)c(Cl)c1` [Compound A-31], the figure is under 10 µM. Turning to `COc1ccc(C(=O)N=C(Nc2cc(F)cc(Cl)c2)Nc2n[nH]c(C(F)(F)F)c2C)cc1` [Compound A-2], the EC50 was under 10 µM. Regarding `CCn1nc(C(F)(F)F)c(C)c1N/C(=N\C(=O)c1ccc(Cl)cc1)Nc1cccc(C(F)(F)F)c1` [Compound A-25], the EC50 was under 10 µM. On the same count and under the same terms, as for `Cc1c(NC(=NC(=O)c2ccc(Cl)cc2)Nc2cccc(C(F)(F)F)c2)n[nH]c1C(F)(F)F` [Compound A-37], the figure is under 10 µM; as for `Cc1c(NC(=NC(=O)c2ccc(Cl)c(F)c2)Nc2cccc(Cl)c2)n[nH]c1C(F)(F)F` [Compound A-41], under 10 µM; as for `Cc1c(NC(=NC(=O)c2cccc(Cl)c2)Nc2cccc(Cl)c2)n[nH]c1C(F)(F)F` [Compound A-7], under 10 µM. Same read-out and setting: as for `CCn1nc(C(F)(F)F)c(C)c1N/C(=N\C(=O)c1cccc(Cl)c1)Nc1cccc(Cl)c1` [Compound A-19], the figure is under 10 µM; as for `Cc1c(NC(=NC(=O)c2ccc(Cl)cc2)Nc2cc(F)cc(Cl)c2)n[nH]c1C(F)(F)F` [Compound A-36], under 10 µM.

On to `CCn1nc(C(F)(F)F)c(C)c1N/C(=N\C(=O)c1ccc(Cl)c(F)c1)Nc1cccc(Cl)c1` [Compound A-29], for which the concentration for a half-maximal effect (EC50) is under 10 µM. On the same count and under the same terms, in the case of `Cc1ccc(NC(=NC(=O)c2ccc(Cl)cc2Cl)Nc2n[nH]c(C(F)(F)F)c2C)c(Cl)c1` [Compound A-33] it was under 10 µM; in that of `CCn1nc(C(F)(F)F)c(C)c1N/C(=N\C(=O)c1ccc(Cl)c(F)c1)Nc1cccc(C(F)(F)F)c1` [Compound A-28], under 10 µM. Still for that read-out and setting: as for `Cc1c(NC(=NC(=O)c2ccc(Cl)cc2Cl)Nc2cccc(C(F)(F)F)c2)n[nH]c1C(F)(F)F` [Compound A-8], the figure is under 10 µM. The same measure, in the same setting: in the case of `CCn1nc(C(F)(F)F)c(C)c1N/C(=N\C(=O)c1ccc(F)c(F)c1)Nc1cc(F)cc(Cl)c1` [Compound A-20] it was under 10 µM. Regarding `Cc1c(N/C(=N\C(=O)c2ccc(F)c(F)c2)Nc2cc(F)cc(Cl)c2)n[nH]c1C(F)(F)F` [Compound 1, N-(((3-Chloro-5-fluorophenyl)amino)((4-methyl-5-(trifluoromethyl)-1H-pyrazol-3-yl)amino)methylene)-3,4-difluorobenzamide], the EC50 was under 10 µM. Consider `CCn1nc(C(F)(F)F)c(C)c1N/C(=N\C(=O)c1ccc(Cl)cc1Cl)Nc1cccc(C(F)(F)F)c1` [Compound A-13], for which the EC50 is under 10 µM. In the case of `CCn1nc(C(F)(F)F)c(C)c1N/C(=N\C(=O)c1ccc(OC)cc1)Nc1cccc(Cl)c1` [Compound A-16], the EC50 was under 10 µM. On the same count and under the same terms, as for `Cc1c(C(F)(F)F)n[nH]c1NC(=NC(=O)c1ccc(F)c(F)c1)Nc1ccc(Cl)cc1Cl` [Compound A-30], the figure is under 10 µM. For the compound `CCn1nc(C(F)(F)F)c(C)c1N/C(=N\C(=O)c1ccc(Cl)c(F)c1)Nc1cc(F)cc(Cl)c1` [Compound A-27], the EC50 is under 10 µM. With `CCn1nc(C(F)(F)F)c(C)c1N/C(=N\C(=O)c1ccc(Cl)cc1Cl)Nc1cc(F)cc(Cl)c1` [Compound A-12], the EC50 was under 10 µM. On to `Cc1c(NC(=NC(=O)c2ccc(C(F)(F)F)cc2)Nc2cccc(Cl)c2)n[nH]c1C(F)(F)F` [Compound A-42], for which the EC50 is under 10 µM. On the same count and under the same terms, as for `CCn1nc(C(F)(F)F)c(C)c1N/C(=N\C(=O)c1ccc(OC)cc1)Nc1cccc(C(F)(F)F)c1` [Compound A-15], the figure is under 10 µM; as for `COc1ccc(C(=O)N=C(Nc2cccc(Cl)c2)Nc2n[nH]c(C(F)(F)F)c2C)cc1` [Compound A-10], under 10 µM.

Test system in another data set: not listed separately
The experiment in a line: Blood plasma levels after oral administration to mice. The class given is in vivo. As to conditions: mouse, 10 mg/kg, heading: AUC0-24, oral gavage, 5 mL/Kg of 2 mg/mL lipid emulsion. Here is the method:
(§1) Exemplary compounds were administered orally to animals (i.e., mice or rats), and then blood samples were taken from the animal at set time points and analyzed for the amount of test compound in the blood sample. Experimental procedures and results are described below.
(§2) A lipid emulsion containing the test compound was prepared by first dissolving the test compound in 1:4 Labrafil M1944:Solutol, then adding 0.5% carboxymethylcellulose in water with vigorous stirring to achieve a final ratio of 5:20:75 Labrafil:Solutol:0.5% aqueous CMC. The concentration of test compound in the lipid emulsion was 2 mg/mL.
(§3) Animals (mice or rats) were dosed by oral gavage using 5 mL/Kg of dosing solution. Animals were serially bled from the dorsal metatarsal vein (mice) or jugular vein (rats) at 30 minutes, 1 h, 2 h, 4 h, 8 h and 24 h post-dose. Test compounds 1 and B-1 were administered to a mice. Test compounds A-1 and B-2 were administered to rats.
(§4) The desired serial concentrations of working solutions were achieved by diluting a stock solution of analyte with 60% acetonitrile in water solution. A 5 μL aliquot of working solutions at 10, 20, 50, 100, 500, 1000, 5000, and 10000 ng/mL were added to 50 μL of blank plasma to achieve calibration standards of 1-1000 ng/mL (1, 2, 5, 10, 50, 100, 500, 1000 ng/mL) in a total volume of 55 μL.
(§5) Four quality control samples at 3 ng/mL (low 1), 5 ng/mL (low 2), 50 ng/mL (medium), and 800 ng/mL (high) were prepared independently of those used for the calibration curves. These QC samples were prepared on the day of analysis in the same way as calibration standards.
(§6) 55 μL standards, 55 μL QC samples, and 55 μL unknown samples were added to 200 μL of acetonitrile for precipitating protein respectively. Then, the samples were vortexed for 30 seconds at 4 degree Celsius. After centrifugation at 4 degree Celsius (i.e., 15000 rpm for 5 min) a 20 μL aliquot of the supernatant was analyzed by LC/MS. Unknowns were compared to standards to obtain test compound concentrations for each sample.
`O=C(/N=C(/Nc1cc(F)cc(Cl)c1)Nc1cc(C(F)(F)F)[nH]n1)c1ccc(F)c(F)c1` [Compound B-1, reference compound] displayed an AUC(0-t) of 4530 ng·h/mL.

Staying with this data set, now noted: mouse, 10 mg/kg, oral gavage, 5 mL/Kg of 2 mg/mL lipid emulsion.
The term Cmax denotes the peak of the concentration-time curve. Take `Cc1c(N/C(=N\C(=O)c2ccc(F)c(F)c2)Nc2cc(F)cc(Cl)c2)n[nH]c1C(F)(F)F` [Compound 1, N-(((3-Chloro-5-fluorophenyl)amino)((4-methyl-5-(trifluoromethyl)-1H-pyrazol-3-yl)amino)methylene)-3,4-difluorobenzamide]: the peak concentration (Cmax) is 1590 ng/mL. Compound `O=C(/N=C(/Nc1cc(F)cc(Cl)c1)Nc1cc(C(F)(F)F)[nH]n1)c1ccc(F)c(F)c1` [Compound B-1, reference compound] came in with a Cmax of 609 ng/mL.

Staying with this data set, now noted: mouse, 10 mg/kg, oral gavage, 5 mL/Kg of 2 mg/mL lipid emulsion, read-out: AUC0-24.
As to `Cc1c(N/C(=N\C(=O)c2ccc(F)c(F)c2)Nc2cc(F)cc(Cl)c2)n[nH]c1C(F)(F)F` [Compound 1, N-(((3-Chloro-5-fluorophenyl)amino)((4-methyl-5-(trifluoromethyl)-1H-pyrazol-3-yl)amino)methylene)-3,4-difluorobenzamide], the AUC(0-t) was found to be 8760 ng·h/mL.

Test system in the next data set: not listed separately
As to the kind of experiment: Blood plasma levels after oral administration to rats. To be noted: rat, 10 mg/kg, heading: AUC0-24, oral gavage, 5 mL/Kg of 2 mg/mL lipid emulsion. Type of data set: in vivo. As to the method: as §1, §2, §3, §4, §5, §6
Compound `Cc1c(N/C(=N\C(=O)c2cccc(Cl)c2)Nc2cc(F)cc(Cl)c2)n[nH]c1C(F)(F)F` [Compound A-1] registered an AUC(0-t) of 10500 ng·h/mL. `O=C(/N=C(/Nc1cc(F)cc(Cl)c1)Nc1cc(C(F)(F)F)[nH]n1)c1cccc(Cl)c1` [Compound B-2, reference compound] returned an AUC(0-t) of 5480 ng·h/mL.

The data set is the same for the next values; noted with them: rat, 10 mg/kg, oral gavage, 5 mL/Kg of 2 mg/mL lipid emulsion.
Compound `Cc1c(N/C(=N\C(=O)c2cccc(Cl)c2)Nc2cc(F)cc(Cl)c2)n[nH]c1C(F)(F)F` [Compound A-1] registered a Cmax of 1440 ng/mL. Same read-out and setting: in the case of `O=C(/N=C(/Nc1cc(F)cc(Cl)c1)Nc1cc(C(F)(F)F)[nH]n1)c1cccc(Cl)c1` [Compound B-2, reference compound] it was 541 ng/mL.
